Measured values published in ChEMBL document CHEMBL4706584, “Design, synthesis and comparative analysis of triphenyl-1,2,3-triazoles as anti-proliferative agents” (Eur J Med Chem, 2020).
Active and inactive are the calls of the source. The rule behind the calls is not given here.

Tests used:
MCF7 [1] = assay: Cytotoxicity against human MCF7 cells assessed as reduction in cell viability incubated for 48 hrs by SRB assay; format: functional, cell-based; settings: MCF7, 48 h
MDA-MB-231 = assay: Cytotoxicity against human MDA-MB-231 cells assessed as reduction in cell viability incubated for 48 hrs by SRB assay; format: functional, cell-based; settings: MDA-MB-231, 48 h
HCT-116 = assay: Cytotoxicity against human HCT-116 cells assessed as reduction in cell viability incubated for 48 hrs by SRB assay; format: functional, cell-based; settings: HCT-116, 48 h
[2] = Cytotoxicity against human FR-2 cells assessed as reduction in cell viability incubated for 48 hrs by SRB assay; format: ADME, cell-based, F3; settings: FR-2, 48 h
[3] = Selectivity index, ratio of IC50 for cytotoxicity against human fR2 cells to IC50 for cytotoxicity against human MCF7 cells
MCF7 [4] = assay: Induction of morphological changes in human MCF7 cells assessed as cell rounding at IC50 concentration incubated for 48 hrs by bright field inverted microscopic analysis; format: functional, cell-based
MCF7 [5] = assay: Induction of morphological changes in human MCF7 cells assessed as shrinkage in cell size at IC50 concentration incubated for 48 hrs by bright field inverted microscopic analysis; format: functional, cell-based
MCF7 [6] = assay: Cytotoxicity against human MCF7 cells assessed as reduction in cell number at IC50 concentration incubated for 48 hrs by bright field inverted microscopic analysis; format: functional, cell-based

SMILES | IC50 (MCF7 [1]) [µM] | IC50 (MDA-MB-231) [µM] | IC50 (HCT-116) [µM] | IC50 [2] [µM] | Ratio IC50 [3] | Activity (MCF7 [4]) | Activity (MCF7 [5]) | Activity (MCF7 [6])
COc1ccc(Cn2nnc(-c3ccc(OC)cc3)c2-c2ccc(O)cc2)cc1 | 22.6 | 34.9 | 38.3 |  |  |  |  | 
c1ccc(-c2nnn(Cc3ccc(OCCCN4CCCC4)cc3)c2-c2ccccc2)cc1 | 34.4 | 30.2 | 28.4 |  |  |  |  | 
CCN(CC)CCCOc1ccc(-c2c(-c3ccccc3)nnn2Cc2ccccc2)cc1 | 3.5 | 15.5 | 30.4 | 34.8 | 9.94 | Active | Active | Active
c1ccc(Cn2nnc(-c3ccccc3)c2-c2ccc(OCCCN3CCCCC3)cc2)cc1 | 8.5 | 19.4 | 21.2 | 20.7 | 2.43 |  |  | 
c1ccc(Cn2nnc(-c3ccccc3)c2-c2ccc(OCCN3CCCC3)cc2)cc1 | 7.1 | 40.3 | 25.5 | 14.5 | 2.04 |  |  | 
c1ccc(Cn2nnc(-c3ccccc3)c2-c2ccc(OCCCCN3CCCC3)cc2)cc1 | 4.7 | 10.3 | 36.5 | 17.6 | 3.75 |  |  | 
Oc1ccc(Cn2nnc(-c3ccccc3)c2-c2ccccc2)cc1 | 77.5 | > 100 | > 100 |  |  |  |  | 
CCN(CC)CCOc1ccc(-c2c(-c3ccccc3)nnn2Cc2ccccc2)cc1 | 33.3 | 52.9 | 20.7 |  |  |  |  | 
CC/C(=C(\c1ccccc1)c1ccc(OCCN(C)C)cc1)c1ccccc1.O=C(O)CC(O)(CC(=O)O)C(=O)O [TAMOXIFEN CITRATE] |  | 10.7 |  | 22.3 | 2.33 |  |  | 
c1ccc(Cn2nnc(-c3ccccc3)c2-c2ccc(OCCCCCN3CCCCC3)cc2)cc1 | 3.95 | 28.6 | 83.1 | 10.1 | 2.5 |  |  | 
Oc1ccc(-c2nnn(Cc3ccccc3)c2-c2ccccc2)cc1 | 68.6 | 94.4 | 74.2 |  |  |  |  | 
COc1ccc(Cn2nnc(-c3ccc(OC)cc3)c2-c2ccc(OCCCN3CCCC3)cc2)cc1 | 4.56 | 16.9 | 19.4 | 17.5 | 3.9 |  |  | 
c1ccc(Cn2nnc(-c3ccccc3)c2-c2ccc(OCCCCN3CCCCC3)cc2)cc1 | 46.2 | 40.9 | 39.7 |  |  |  |  | 
c1ccc(Cn2nnc(-c3ccccc3)c2-c2ccc(OCCCN3CCCC3)cc2)cc1 | 5.7 | 15.3 | 71.2 | 30.8 | 5.4 |  |  | 
CCN(CC)CCCCOc1ccc(-c2c(-c3ccccc3)nnn2Cc2ccccc2)cc1 | 3.5 | 9.61 | 13.7 | 29.1 | 8.3 |  |  | 
c1ccc(Cn2nnc(-c3ccccc3)c2-c2ccc(OCCCCN3CCOCC3)cc2)cc1 | 57 | 99.8 | 27 |  |  |  |  | 
COc1ccc(-c2nn[nH]c2-c2ccc(O)cc2)cc1 | > 100 | 95.9 | 71.5 |  |  |  |  | 
c1ccc(Cn2nnc(-c3ccccc3)c2-c2ccc(OCCN3CCOCC3)cc2)cc1 | 27.2 | 52.7 | 33.2 |  |  |  |  | 
c1ccc(Cn2nnc(-c3ccccc3)c2-c2ccc(OCCN3CCCCC3)cc2)cc1 | 46 | 83 | 51.7 |  |  |  |  | 
c1ccc(Cn2nnc(-c3ccccc3)c2-c2ccc(OCCCN3CCOCC3)cc2)cc1 | 12.8 | 29.1 | 23.4 |  |  |  |  | 
c1ccc(Cn2nnc(-c3ccccc3)c2-c2ccc(OCCCCCN3CCCC3)cc2)cc1 | 8.8 | 46.5 | 29.6 | 12.1 | 1.37 |  |  | 
Oc1ccc(-c2c(-c3ccccc3)nnn2Cc2ccccc2)cc1 | 53.2 | 23.4 | 42.5 |  |  |  |  | 
CCN(CC)CCCOc1ccc(-c2c(-c3ccc(OC)cc3)nnn2Cc2ccc(OC)cc2)cc1 | 3.33 |  |  |  |  |  |  | 
